Reference: patent US8551984B2, “Aminopyrimidines as SYK inhibitors” (Merck Sharp & Dohme Corp., priority 2009, dated 2013)

The compounds below were run against recombinant human SYK (GST-hSYK fusion protein) (Homo sapiens, UniProt P43405) (assay: biochemical). Settings: rhSYK Activity (IC50), recombinant human GST-SYK 5 pM, ATP 25 μM, biotinylated substrate peptide 250 nM, HTRF, 10-dose titration.
Source text: Homogeneous Time-Resolved Fluorescence (HTRF) Assay for the Recombinant Human SYK Enzyme:

Row | IC50 | SMILES
1 | < 100 nM | Cc1cc(Nc2nccc(C(F)(F)F)n2)cc(-c2cnc(CNCCCCO)s2)c1 [Example 88A-20]
2 | < 100 nM | Cc1cc(Nc2nccc(C(F)(F)F)n2)cc(-c2cnc(CNC3(C(=O)O)CC3)s2)c1 [Example 88A-21]
3 | < 100 nM | Cc1cc(Nc2nccc(C(F)(F)F)n2)cc(-c2cnc(CNCC(N)=O)s2)c1 [Example 88A-22]
4 | < 100 nM | Cc1cc(Nc2nccc(C(F)(F)F)n2)cc(-c2cnc(CNCCC(N)=O)s2)c1 [Example 88A-23]
5 | < 100 nM | Cc1cc(Nc2nccc(C(F)(F)F)n2)cc(-c2cnc(CNCCS(C)(=O)=O)s2)c1 [Example 88A-24]
6 | < 100 nM | Cc1cc(Nc2nccc(C(F)(F)F)n2)cc(-c2cnc(CN(C)CCS(C)(=O)=O)s2)c1 [Example 88A-25]
7 | < 100 nM | CCn1cc(NCc2ncc(-c3cc(C)cc(Nc4nccc(C(F)(F)F)n4)c3)s2)nn1 [Example 88A-26]
8 | < 100 nM | Cc1cc(Nc2nccc(C(F)(F)F)n2)cc(-c2cnc(CN(C)CC(O)CO)s2)c1 (stereo not drawn) [Example 88A-28]
9 | < 100 nM | Cc1cc(Nc2nccc(C(F)(F)F)n2)cc(-c2cnc(CNC3CCCCNC3=O)s2)c1 (stereo not drawn) [Example 88A-29]
10 | < 100 nM | Cc1cc(Nc2nccc(C(F)(F)F)n2)cc(-c2cnc(CNCCN3CCNC(=O)C3)s2)c1 [Example 88A-30]
11 | < 100 nM | CNS(=O)(=O)CCNCc1ncc(-c2cc(C)cc(Nc3nccc(C(F)(F)F)n3)c2)s1 [Example 88A-31]
12 | < 100 nM | Cc1cc(Nc2nccc(C(F)(F)F)n2)cc(-c2cnc(CNc3cc(C(=O)O)n[nH]3)s2)c1 [Example 88A-32]
13 | < 100 nM | Cc1cc(Nc2nccc(C(F)(F)F)n2)cc(-c2cnc(CNCC(C)(C)O)s2)c1 [Example 88A-33]
14 | < 100 nM | Cc1cc(Nc2nccc(C(F)(F)F)n2)cc(-c2cnc(CNC3CCNC3=O)s2)c1 (stereo not drawn) [Example 88A-35]
15 | < 100 nM | Cc1cc(Nc2nccc(C(F)(F)F)n2)cc(-c2cnc(CNC3CNC(=O)C3)s2)c1 (stereo not drawn) [Example 88A-36]
16 | < 100 nM | Cc1cc(Nc2nccc(C(F)(F)F)n2)cc(-c2cnc(C(C)N(C)C)s2)c1 (stereo not drawn) [Example 88A-38]
17 | < 100 nM | Cc1cc(Nc2nccc(C(F)(F)F)n2)cc(-c2cnc(C(C)NC3CNC(=O)C3)s2)c1 (stereo not drawn) [Example 88A-39]
18 | < 100 nM | Cc1cc(Nc2nccc(C(F)(F)F)n2)cc(-c2cnc(CN)s2)c1 [Example 88A-40]
19 | < 100 nM | Cc1cc(Nc2nccc(C(F)(F)F)n2)cc(-c2cnc(CNCC(O)CO)s2)c1 (stereo not drawn) [Example 88A-41]
20 | < 100 nM | Cc1cc(Nc2nccc(C(F)(F)F)n2)cc(-c2cnc(CNCCOCCO)s2)c1 [Example 88A-42]
21 | < 100 nM | Cc1cc(Nc2nccc(C(F)(F)F)n2)cc(-c2cnc(CNC(C)(C)CC(C)O)s2)c1 (stereo not drawn) [Example 88A-45]
22 | < 100 nM | Cc1cc(Nc2nccc(C(F)(F)F)n2)cc(-c2cnc(CNCC3(CO)COC3)s2)c1 [Example 88A-46]
23 | < 100 nM | Cc1cc(Nc2nccc(C(F)(F)F)n2)cc(-c2cnc(CNC(CO)(CO)CO)s2)c1 [Example 88A-47]

Row | IC50 | SMILES
24 | < 100 nM | Cc1cc(Nc2nccc(C(F)(F)F)n2)cc(-c2cnc(CNCC3(CO)CCOCC3)s2)c1 [Example 88A-49]
25 | < 100 nM | Cc1cc(Nc2nccc(C(F)(F)F)n2)cc(-c2cnc(CNCCCN(CCO)CCO)s2)c1 [Example 88A-51]
26 | < 100 nM | Cc1cc(Nc2nccc(C(F)(F)F)n2)cc(-c2cnc(CN(CCO)CCS(=O)(=O)O)s2)c1 [Example 88A-52]
27 | < 100 nM | Cc1cc(Nc2nccc(C(F)(F)F)n2)cc(-c2cnc(CN(C)C3COCC3O)s2)c1 (stereo not drawn) [Example 88A-54]
28 | < 100 nM | Cc1cc(Nc2nccc(C(F)(F)F)n2)cc(-c2cnc(CNC3(C)CCCCC3CO)s2)c1 (stereo not drawn) [Example 88A-55]
29 | < 100 nM | Cc1cc(Nc2nccc(C(F)(F)F)n2)cc(-c2cnc(CNC3CS(=O)(=O)CC3O)s2)c1 (stereo not drawn) [Example 88A-57]
30 | < 100 nM | CCN(Cc1ncc(-c2cc(C)cc(Nc3nccc(C(F)(F)F)n3)c2)s1)C1CS(=O)(=O)CC1O (stereo not drawn) [Example 88A-58]
31 | < 100 nM | CNC(=O)NCc1ncc(-c2cc(C)cc(Nc3nccc(C(F)(F)F)n3)c2)s1 [Example 88A-61]
32 | < 100 nM | CCNC(=O)NCc1ncc(-c2cc(C)cc(Nc3nccc(C(F)(F)F)n3)c2)s1 [Example 88A-62]
33 | < 100 nM | Cc1cc(Nc2nccc(C(F)(F)F)n2)cc(-c2cnc(CNC(=O)NC(C)C)s2)c1 [Example 88A-63]
34 | < 100 nM | CCOC(=O)C(C)NC(=O)NCc1ncc(-c2cc(C)cc(Nc3nccc(C(F)(F)F)n3)c2)s1 (stereo not drawn) [Example 88A-64]
35 | < 100 nM | Cc1cc(Nc2nccc(C(F)(F)F)n2)cc(-c2cnc(CN3CCCC(C)(O)C3)s2)c1 (stereo not drawn) [Example 88B-1]
36 | < 100 nM | Cc1cc(Nc2nccc(C(F)(F)F)n2)cc(-c2cnc(CN3CCC(C)(O)C3)s2)c1 (stereo not drawn) [Example 88B-2]
37 | < 100 nM | Cc1cc(Nc2nccc(C(F)(F)F)n2)cc(-c2cnc(CN3CC[S+]([O-])CC3)s2)c1 [Example 88B-3]
38 | < 100 nM | Cc1cc(Nc2nccc(C(F)(F)F)n2)cc(-c2cnc(CN3CCC[S+]([O-])CC3)s2)c1 (stereo not drawn) [Example 88B-4]
39 | < 100 nM | Cc1cc(Nc2nccc(C(F)(F)F)n2)cc(-c2cnc(CN3CCC(C)(O)CC3)s2)c1 [Example 88B-5]
40 | < 100 nM | CC(=O)N1CCN(Cc2ncc(-c3cc(C)cc(Nc4nccc(C(F)(F)F)n4)c3)s2)CC1 [Example 88B-6]
41 | < 100 nM | Cc1cc(Nc2nccc(C(F)(F)F)n2)cc(-c2cnc(CN3CCNC(=O)CC3)s2)c1 [Example 88B-7]
42 | < 100 nM | Cc1cc(Nc2nccc(C(F)(F)F)n2)cc(-c2cnc(CN3CCCNC(=O)C3)s2)c1 [Example 88B-8]
43 | < 100 nM | Cc1cc(Nc2nccc(C(F)(F)F)n2)cc(-c2cnc(CN3CCN(S(C)(=O)=O)CC3)s2)c1 [Example 88B-9]
44 | < 100 nM | Cc1cc(Nc2nccc(C(F)(F)F)n2)cc(-c2cnc(CN3CCCC(C(N)=O)C3)s2)c1 (stereo not drawn) [Example 88B-10]
45 | < 100 nM | Cc1cc(Nc2nccc(C(F)(F)F)n2)cc(-c2cnc(CN3CCOC(CCO)C3)s2)c1 (stereo not drawn) [Example 88B-11]
46 | < 100 nM | COCC1CN(Cc2ncc(-c3cc(C)cc(Nc4nccc(C(F)(F)F)n4)c3)s2)CCO1 (stereo not drawn) [Example 88B-13]

Row | IC50 | SMILES
47 | < 100 nM | Cc1cc(Nc2nccc(C(F)(F)F)n2)cc(-c2cnc(CN3CCOC(CC(=O)O)C3)s2)c1 (stereo not drawn) [Example 88B-14]
48 | < 100 nM | Cc1cc(Nc2nccc(C(F)(F)F)n2)cc(-c2cnc(CN3CCC(P(=O)(O)O)C3)s2)c1 (stereo not drawn) [Example 88B-15]
49 | < 100 nM | Cc1cc(Nc2nccc(C(F)(F)F)n2)cc(-c2cnc(CN3CC(COP(C)(C)=O)C3)s2)c1 [Example 88B-16]
50 | < 100 nM | Cc1cc(Nc2nccc(C(F)(F)F)n2)cc(-c2cnc(CN3CCP(=O)(C(C)C)CC3)s2)c1 [Example 88B-17]
51 | < 100 nM | Cc1cc(Nc2nccc(C(F)(F)F)n2)cc(-c2cnc(CO)s2)c1 [Example 89, [5-(3-methyl-5-{[4-(trifluoromethyl)pyrimidin-2-yl]amino}phenyl)-1,3-thiazol-2-yl]methanol]
52 | < 100 nM | Cc1cc(Nc2nccc(C(F)(F)F)n2)cc(-c2cnc(CBr)s2)c1 [Example 90, N-{3-[2-(bromomethyl)-1,3-thiazol-5-yl]-5-methylphenyl}-4-(trifluoromethyl)pyrimidin-2-amine]
53 | < 100 nM | CCOC(=O)C1(Cc2ncc(-c3cc(C)cc(Nc4nccc(C(F)(F)F)n4)c3)s2)CCNC1=O (stereo not drawn) [Example 91, Ethyl 3-{[5-(3-methyl-5-{[4-(trifluoromethyl)pyrimidin-2-yl]amino}phenyl)-1,3-thiazol-2-yl]-methyl}-2-oxopyrrolidine-3-carboxylate]
54 | < 100 nM | Cc1cc(Nc2nccc(C(F)(F)F)n2)cc(-c2cnc(CC3(C(=O)O)CCNC3=O)s2)c1 (stereo not drawn) [Example 92, 3-{[5-(3-methyl-5-{[4-(trifluoromethyl)pyrimidin-2-yl]amino}phenyl)-1,3-thiazol-2-yl]methyl}-2-oxopyrrolidine-3-carboxylic acid]
55 | < 100 nM | Cc1cc(Nc2nccc(C(F)(F)F)n2)cc(-c2cnc(CN3CCOC3=O)s2)c1 [Example 92-1]
56 | < 100 nM | Cc1cc(Nc2nccc(C(F)(F)F)n2)cc(-c2cnc(CN3CCCC3=O)s2)c1 [Example 92-2]
57 | < 100 nM | Cc1cc(Nc2nccc(C(F)(F)F)n2)cc(-c2cnc(CN3CCN(C)C3=O)s2)c1 [Example 92-3]
58 | < 100 nM | Cc1cc(Nc2nccc(OC3CNC3)n2)cc(-c2cnc(C3(O)CCC3)s2)c1 [Example 93, 1-[5-(3-{[4-(azetidin-3-yloxy)pyrimidin-2-yl]amino}-5-methylphenyl)-1,3-thiazol-2-yl]cyclobutanol]
59 | < 100 nM | Cc1cc(Nc2nccc(OC3COC3)n2)cc(-c2cnc(C3(O)CCC3)s2)c1 [Example 94, 1-[5-(3-methyl-5-{[4-(oxetan-3-yloxy)pyrimidin-2-yl]amino}phenyl)-1,3-thiazol-2-yl]cyclobutanol]
60 | < 100 nM | Cc1cc(Nc2nccc(OCc3ccncc3)n2)cc(-c2cnc(C3(O)CCC3)s2)c1 [Example 94A-1]
61 | < 100 nM | Cc1cc(Nc2nccc(OCc3cccnc3)n2)cc(-c2cnc(C3(O)CCC3)s2)c1 [Example 94A-2]
62 | < 100 nM | Cc1cc(Nc2nccc(OCc3ccccn3)n2)cc(-c2cnc(C3(O)CCC3)s2)c1 [Example 94A-3]
63 | < 100 nM | Cc1cc(Nc2nccc(OCC3COCCO3)n2)cc(-c2cnc(C3(O)CCC3)s2)c1 (stereo not drawn) [Example 94A-4]
64 | < 100 nM | Cc1cc(Nc2nccc(OCCC3CCOCC3)n2)cc(-c2cnc(C3(O)CCC3)s2)c1 [Example 94A-5]
65 | 100 to 1000 nM | Cc1cc(Nc2ncc(F)c(OC3CCOC3)n2)cc(-c2cnc(C3(O)CCC3)s2)c1 (stereo not drawn) [Example 94A-6]
66 | < 100 nM | Cc1cc(Nc2nccc(OCC3CCOCC3)n2)cc(-c2cnc(C3(O)CCC3)s2)c1 [Example 94A-7]
67 | < 100 nM | Cc1cc(Nc2nccc(O[C@@H]3CCOC3)n2)cc(-c2cnc(C3(O)CCC3)s2)c1 [Example 94A-8]
68 | 100 to 1000 nM | Cc1cc(Nc2nccc(OCCOCc3ccccc3)n2)cc(-c2cnc(C3(O)CCC3)s2)c1 [Example 94A-9]
69 | < 100 nM | Cc1cc(Nc2nccc(O[C@H]3CCOC3)n2)cc(-c2cnc(C3(O)CCC3)s2)c1 [Example 94A-10]
